Format in all cases: in vitro ADME
A short description of series [1]: Stability of peptides in human plasma. The conditions noted are these: human, plasma; for metabolised at 24 h, 2 μM: pH 7.8. The method, boiled down: (§1)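 Peptides at 2 μM final incubated 0–24 h at 37 °C (50 mM triethanolamine-HCl, pH 7.8) in each matrix, matrix level set to degrade ~50% PTH(1-34) in 1 h; TFA-quenched, C18 HPLC at 206 nm with ESI-MS peak identification; percent degradation from peak areas at each time point.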

Series [2] in a line: Stability of peptides in simulated gastric fluid (pH 1.5; HCl, NaCl and Pepsin). The following applies: pH 1.5; for % degradation of peptides in 24 h when incubated with simulated gastric fluid: 2 μM; for half-life (t1/2) in simulated gastric fluid / half-life: simulated gi fluid.
A short description of series [3]: Stability of peptides in simulated intestinal fluid (pH 7.5). The following applies: pH 7.5; for half-life (t1/2) in simulated intestinal fluid / half-life: simulated gi fluid; for % degradation of peptides in 24 h when incubated with simulated intestinal fluid: 2 μM. The method, boiled down: as §1
The nature of series [4]: Stability of peptides in human liver microsomes. The conditions noted are these: human, microsomes; for % degradation of peptides in 24 h when incubated with liver microsomes: 2 μM, pH 7.8. The gist of the method:
as §1
(In general: Liver microsomes are vesicles of endoplasmic reticulum, rich in cytochrome P450 enzymes.)

Structures are written as SMILES. Where a SMILES comes first, the peptide text is derived from it. [ ]: non-standard residue; d: D form. ξ: configuration not given here. ξBip(2'-Et-4'-OMe) = CCc1cc(OC)ccc1-c1ccc(CC(N)C(=O)O)cc1; ξαMePhe(2,6-F2) = CC(N)(Cc1c(F)cccc1F)C(=O)O; ξαMe(hhPhe) = CC(N)(CCCc1ccccc1)C(=O)O; ξαMePhe(2-F) = CC(N)(Cc1ccccc1F)C(=O)O; hArg = N=C(N)NCCCC[C@H](N)C(=O)O; hCit = NC(=O)NCCCC[C@H](N)C(=O)O; Cit = NC(=O)NCCC[C@H](N)C(=O)O; ξαMeF = CC(N)(Cc1ccccc1)C(=O)O; ξαMeV = CC(C)C(C)(N)C(=O)O; ξαMeM = CSCCC(C)(N)C(=O)O; Nle = CCCC[C@H](N)C(=O)O; Ac5c = NC1(C(=O)O)CCCC1; Aib = CC(C)(N)C(=O)O

`CCCC[C@H](NC(=O)C(C)(Cc1c(F)cccc1F)NC(=O)[C@H](CCC(N)=O)NC(=O)[C@@H](NC(=O)[C@H](CCC(=O)O)NC(=O)C(C)(C)NC(=O)[C@@H](NC(=O)C1(N)CCCC1)C(C)C)[C@@H](C)CC)C(=O)N[C@@H](Cc1c[nH]cn1)C(=O)N[C@@H](CCC(N)=O)C(=O)NC(C)(C)C(=O)NC(C)(C)C(=O)NC(C)(C)C(=O)NC(C)(Cc1ccccc1F)C(N)=O` (stereo partly drawn) [Seq. ID. 560] (H-[Ac5c]V[Aib]EIQ[ξαMePhe(2,6-F2)][Nle]HQ[Aib][Aib][Aib][ξαMePhe(2-F)]-NH2): in series [1], the half-life – broadly, the time in which the quantity being followed falls by half – came out at 8 h and the metabolised at 24 h, 2 μM amounted to 78%. In series [2], the “% degradation of peptides in 24 h when incubated with simulated gastric fluid” value (from here on “% degradation … with simulated gastric fluid”) was 14% and the “half-life (t1/2) in simulated gastric fluid” value was “(8) h”. For the same molecule, in series [3], the “half-life (t1/2) in simulated intestinal fluid” value was “(6) h” and the “% degradation of peptides in 24 h when incubated with simulated intestinal fluid” value (shortened to “% degradation … with simulated intestinal fluid”) was 43%. For the same molecule, in series [4], the half-life was determined as 1 h and the “% degradation of peptides in 24 h when incubated with liver microsomes” value (shortened to “% degradation … with liver microsomes”) turned out to be 80%.
In series [1], `CCCC[C@H](NC(=O)C(C)(Cc1c(F)cccc1F)NC(=O)[C@H](CCC(N)=O)NC(=O)[C@@H](NC(=O)[C@H](CCC(=O)O)NC(=O)C(C)(C)NC(=O)[C@@H](NC(=O)C1(N)CCCC1)C(C)C)[C@@H](C)CC)C(=O)N[C@@H](Cc1c[nH]cn1)C(=O)N[C@@H](CCC(N)=O)C(=O)N[C@@H](CCCCNC(=N)N)C(=O)NC(C)(C)C(=O)NC(C)(Cc1c(F)cccc1F)C(=O)NC(C)(Cc1ccccc1F)C(N)=O` (stereo partly drawn) [Seq. ID. 220] (H-[Ac5c]V[Aib]EIQ[ξαMePhe(2,6-F2)][Nle]HQ[hArg][Aib][ξαMePhe(2,6-F2)][ξαMePhe(2-F)]-NH2) came in with a half-life of 8 h and a metabolised at 24 h, 2 μM of 75%. Besides, in series [2], the “% degradation … with simulated gastric fluid” value is 12% and the “half-life (t1/2) in simulated gastric fluid” value is “(8) h”. Further, in series [3], the “half-life (t1/2) in simulated intestinal fluid” value is reported as “(6) h” and the “% degradation … with simulated intestinal fluid” value is recorded as 46%. In addition, in series [4], the half-life came out at 1 h and the “% degradation … with liver microsomes” value is given as 83%.
Take `CCCC[C@H](NC(=O)C(C)(Cc1c(F)cccc1F)NC(=O)[C@H](CCC(N)=O)NC(=O)[C@@H](NC(=O)[C@H](CCC(=O)O)NC(=O)C1(NC(=O)[C@@H](NC(=O)C2(N)CCCC2)C(C)C)CCCC1)[C@@H](C)CC)C(=O)N[C@@H](Cc1c[nH]cn1)C(=O)N[C@@H](CCC(N)=O)C(=O)N[C@@H](CCCCNC(=N)N)C(=O)N[C@@H](C)C(=O)N[C@@H](CCCCN)C(=O)NC(C)(Cc1c(F)cccc1F)C(N)=O` (stereo partly drawn) [Seq. ID. 115] (H-[Ac5c]V[Ac5c]EIQ[ξαMePhe(2,6-F2)][Nle]HQ[hArg]AK[ξαMePhe(2,6-F2)]-NH2): in series [1], the half-life was found to be 8 h and the metabolised at 24 h, 2 μM amounted to 78%. Besides, in series [2], the “% degradation … with simulated gastric fluid” value is listed as 12% and the “half-life (t1/2) in simulated gastric fluid” value is “(8) h”. In series [3], the “half-life (t1/2) in simulated intestinal fluid” value is on record as “(6) h” and the “% degradation … with simulated intestinal fluid” value was 55%. In series [4], the half-life amounted to 1 h and the “% degradation … with liver microsomes” value was 79%.
Consider `CCc1cc(OC)ccc1-c1ccc(CC(NC(=O)[C@H](CCCCNC(=N)N)NC(=O)[C@H](C)NC(=O)[C@H](CCCCNC(=N)N)NC(=O)[C@H](CCC(N)=O)NC(=O)[C@H](Cc2c[nH]cn2)NC(=O)C(C)(CCSC)NC(=O)[C@H](CC(C)C)NC(=O)[C@H](CCC(N)=O)NC(=O)[C@@H](NC(=O)[C@H](CCC(=O)O)NC(=O)C(C)(C)NC(=O)[C@@H](NC(=O)C(C)(C)NC(=O)[C@@H](N)C(C)C)C(C)C)[C@@H](C)CC)C(=O)NC(C)(CCCc2ccccc2)C(N)=O)cc1` (stereo partly drawn) [Seq. ID. 920] (H-V[Aib]V[Aib]EIQL[ξαMeM]HQ[hArg]A[hArg][ξBip(2'-Et-4'-OMe)][ξαMe(hhPhe)]-NH2), for which, in series [1], the half-life is > 24 h and the metabolised at 24 h, 2 μM was determined as 0%. In addition, in series [2], the “% degradation … with simulated gastric fluid” value is listed as 00% and the half-life is > 24 h. Further, in series [3], the half-life was > 24 h and the “% degradation … with simulated intestinal fluid” value is on record as 00%. Moreover, in series [4], the “half-life (t1/2) in liver microsomes” value is reported as “(5) h” and the “% degradation … with liver microsomes” value stood at 35%.
On to `CCCC[C@H](NC(=O)C(C)(Cc1c(F)cccc1F)NC(=O)[C@H](CCC(N)=O)NC(=O)[C@@H](NC(=O)[C@H](CCC(=O)O)NC(=O)C(C)(C)NC(=O)[C@@H](NC(=O)C(C)(C)N)C(C)C)[C@@H](C)CC)C(=O)N[C@@H](Cc1c[nH]cn1)C(=O)N[C@@H](CCC(N)=O)C(=O)NC(C)(Cc1c(F)cccc1F)C(=O)NC(C)(C)C(=O)NC(C)(Cc1c(F)cccc1F)C(=O)NC(C)(Cc1ccccc1F)C(N)=O` (stereo partly drawn) [Seq. ID. 510] (H-[Aib]V[Aib]EIQ[ξαMePhe(2,6-F2)][Nle]HQ[ξαMePhe(2,6-F2)][Aib][ξαMePhe(2,6-F2)][ξαMePhe(2-F)]-NH2), for which, in series [1], the half-life is > 24 h and the metabolised at 24 h, 2 μM was 0%. In series [2], the “% degradation … with simulated gastric fluid” value was 41% and the half-life was 4 h. Also, in series [3], the half-life was > 24 h and the “% degradation … with simulated intestinal fluid” value was 00%. In addition, in series [4], the half-life was 2 h and the “% degradation … with liver microsomes” value was determined as 80%.
Turning to `CCCC[C@H](NC(=O)C(C)(Cc1c(F)cccc1F)NC(=O)[C@H](CCC(N)=O)NC(=O)[C@@H](NC(=O)[C@H](CCC(=O)O)NC(=O)C(C)(C)NC(=O)[C@@H](NC(=O)C1(N)CCCC1)C(C)C)[C@@H](C)CC)C(=O)N[C@@H](Cc1c[nH]cn1)C(=O)N[C@@H](CCC(N)=O)C(=O)NC(C)(Cc1c(F)cccc1F)C(=O)NC(C)(C)C(=O)N[C@@H](CCCNC(N)=O)C(=O)NC(C)(Cc1ccccc1F)C(N)=O` (stereo partly drawn) [Seq. ID. 480] (H-[Ac5c]V[Aib]EIQ[ξαMePhe(2,6-F2)][Nle]HQ[ξαMePhe(2,6-F2)][Aib][Cit][ξαMePhe(2-F)]-NH2), in series [1], the half-life is > 24 h and the metabolised at 24 h, 2 μM was determined as 0%. In addition, in series [2], the “% degradation … with simulated gastric fluid” value is 00% and the half-life is > 24 h. For the same molecule, in series [3], the half-life was > 24 h and the “% degradation … with simulated intestinal fluid” value is reported as 00%. In addition, in series [4], the “half-life (t1/2) in liver microsomes” value was “(5) h” and the “% degradation … with liver microsomes” value was 32%.
Regarding `CCCC[C@H](NC(=O)C(C)(Cc1c(F)cccc1F)NC(=O)[C@H](CCC(N)=O)NC(=O)[C@@H](NC(=O)[C@H](CCC(=O)O)NC(=O)C(C)(C)NC(=O)[C@@H](NC(=O)C(C)(C)N)C(C)C)[C@@H](C)CC)C(=O)N[C@@H](Cc1c[nH]cn1)C(=O)N[C@@H](CCC(N)=O)C(=O)N[C@@H](CCCCNC(N)=O)C(=O)NC(C)(C)C(=O)NC(C)(C)C(=O)NC(C)(Cc1ccccc1F)C(N)=O` (stereo partly drawn) [Seq. ID. 430] (H-[Aib]V[Aib]EIQ[ξαMePhe(2,6-F2)][Nle]HQ[hCit][Aib][Aib][ξαMePhe(2-F)]-NH2), in series [1], the half-life is > 24 h and the metabolised at 24 h, 2 μM was found to be 0%. Also, in series [2], the “% degradation … with simulated gastric fluid” value was 45% and the half-life was 4 h. In series [3], the half-life is > 24 h and the “% degradation … with simulated intestinal fluid” value is 00%. Also, in series [4], the half-life was 2 h and the “% degradation … with liver microsomes” value amounted to 85%.
With `CCc1cc(OC)ccc1-c1ccc(CC(NC(=O)[C@H](CCCCNC(=N)N)NC(=O)[C@H](C)NC(=O)[C@H](CCCCNC(=N)N)NC(=O)[C@H](CCC(N)=O)NC(=O)[C@H](Cc2c[nH]cn2)NC(=O)[C@H](CCSC)NC(=O)[C@H](CC(C)C)NC(=O)[C@H](CCC(N)=O)NC(=O)[C@@H](NC(=O)[C@H](CCC(=O)O)NC(=O)C(C)(C)NC(=O)[C@@H](NC(=O)C2(NC(=O)C(C)(N)C(C)C)CCCC2)C(C)C)[C@@H](C)CC)C(=O)NC(C)(CCCc2ccccc2)C(N)=O)cc1` (stereo partly drawn) [Seq. ID. 906] (H-[ξαMeV][Ac5c]V[Aib]EIQLMHQ[hArg]A[hArg][ξBip(2'-Et-4'-OMe)][ξαMe(hhPhe)]-NH2), in series [1], the “half-life (t1/2) in human plasma” value is “(9) h” and the metabolised at 24 h, 2 μM is 78%. Moreover, in series [2], the “% degradation … with simulated gastric fluid” value is on record as 100% and the half-life is 0.5 h. Besides, in series [3], the half-life was 0.5 h and the “% degradation … with simulated intestinal fluid” value is 100%. In series [4], the half-life is 0.5 h and the “% degradation … with liver microsomes” value worked out at 100%.
As to `CCCC[C@H](NC(=O)[C@H](CC(C)C)NC(=O)[C@H](CCC(N)=O)NC(=O)[C@@H](NC(=O)[C@H](CCC(=O)O)NC(=O)C(C)(C)NC(=O)[C@@H](NC(=O)C(C)(C)N)C(C)C)[C@@H](C)CC)C(=O)N[C@@H](Cc1c[nH]cn1)C(=O)N[C@@H](CCC(N)=O)C(=O)N[C@@H](CCCCNC(=N)N)C(=O)NC(C)(C)C(=O)N[C@@H](CCCCN)C(=O)NC(C)(Cc1ccccc1)C(N)=O` (stereo partly drawn) [Seq. ID. 10] (H-[Aib]V[Aib]EIQL[Nle]HQ[hArg][Aib]K[ξαMeF]-NH2), in series [1], the “half-life (t1/2) in human plasma” value is “(9) h” and the metabolised at 24 h, 2 μM was 70%. In series [2], the “% degradation … with simulated gastric fluid” value is reported as 100% and the half-life was 0.5 h. Further, in series [3], the half-life was 0.5 h and the “% degradation … with simulated intestinal fluid” value is reported as 100%. For the same molecule, in series [4], the half-life is 0.5 h and the “% degradation … with liver microsomes” value came to 100%.

(Values after US8383581B2, “Short-chain peptides as parathyroid hormone (PTH) receptor agonist” (Cadila Healthcare Limited, priority 2009, dated 2013).)
